Results from patent US9179678B2, “Substituted [1,2,4]triazoles and substituted tetrazoles as herbicides” (SYNGENTA LIMITED, priority 2012, dated 2015).

Test system: Alopecurus myosuroides (ALOMY)
Test: Post-emergence glasshouse herbicide test
Type: in vivo
Conditions: POST Application, 1000 g/h, after 13 days
Method: (§1) Seeds of a variety of test species are sown in standard soil in pots (Alopecurus myosuroides (ALOMY), Setaria faberi (SETFA), Echinochloa crus-galli (ECHCG), Solanum nigrum (SOLNI), Amaranthus retoflexus (AMARE), Ipomoea hederacea (IPOHE)). After cultivation for one day (pre-emergence) or after 8 days cultivation (post-emergence) under controlled conditions in a glasshouse (at 24/16° C., day/night; 14 hours light; 65% humidity), the plants are sprayed with an aqueous spray solution derived from the formulation of the technical active ingredient in acetone/water (50:50) solution containing 0.5% Tween 20 (polyoxyethelyene sorbitan monolaurate, CAS RN 9005-64-5). Compounds ae applied at 1000 g/h. The test plants are then grown in a glasshouse under controlled conditions in a glasshouse (at 24/16° C., day/night; 14 hours light; 65% humidity) and watered twice daily. After 13 days for pre and post-emergence, the test is evaluated for the percentage damage caused to the plant. The biological activities are shown in the following table on a five point scale (5=80-100%; 4=60-79%; 3=40-59%; 2=20-39%; 1=0-19%).

Structure (SMILES) | percentage damage caused to the plant, ALOMY
Cn1nnnc1NC(=O)c1nc2ccc(Cl)cc2n(-c2ccccc2)c1=O [Compound 5.008] | 2 (2=20-39%)
Cc1ccccc1-n1c(=O)c(C(=O)Nc2nnnn2C)nc2ccccc21 [Compound 5.034] | 4 (4=60-79%)
Cn1nnnc1NC(=O)c1nc2ccccc2n(-c2cccc(F)c2)c1=O [Compound 5.018] | 5 (5=80-100%)
Cn1nnnc1NC(=O)c1nc2cccnc2n(-c2ccccc2)c1=O [Compound 4.002] | 1 (1=0-19%)
Cn1nnnc1NC(=O)c1nc2ccccc2n(C)c1=O [Compound 5.002] | 1 (1=0-19%)
COc1ccc(-n2c(=O)c(C(=O)Nc3nnnn3C)nc3ccccc32)cc1Cl [Compound 5.039] | 1 (1=0-19%)

Test system: Amaranthus retoflexus (AMARE)
Test: Post-emergence glasshouse herbicide test
Type: in vivo
Conditions: POST Application, 1000 g/h, after 13 days
Method: as §1

Structure (SMILES) | percentage damage caused to the plant, AMARE
Cn1nnnc1NC(=O)c1nc2ccc(Cl)cc2n(-c2ccccc2)c1=O [Compound 5.008] | 5 (5=80-100%)
Cc1ccccc1-n1c(=O)c(C(=O)Nc2nnnn2C)nc2ccccc21 [Compound 5.034] | 5 (5=80-100%)
Cn1nnnc1NC(=O)c1nc2ccccc2n(-c2cccc(F)c2)c1=O [Compound 5.018] | 5 (5=80-100%)
Cn1nnnc1NC(=O)c1nc2cccnc2n(-c2ccccc2)c1=O [Compound 4.002] | 2 (2=20-39%)
Cn1nnnc1NC(=O)c1nc2ccccc2n(C)c1=O [Compound 5.002] | 5 (5=80-100%)
COc1ccc(-n2c(=O)c(C(=O)Nc3nnnn3C)nc3ccccc32)cc1Cl [Compound 5.039] | 5 (5=80-100%)

Test system: Echinochloa crus-galli (ECHCG)
Test: Post-emergence glasshouse herbicide test
Type: in vivo
Conditions: POST Application, 1000 g/h, after 13 days
Method: as §1

Structure (SMILES) | percentage damage caused to the plant, ECHCG
Cn1nnnc1NC(=O)c1nc2ccc(Cl)cc2n(-c2ccccc2)c1=O [Compound 5.008] | 2 (2=20-39%)
Cc1ccccc1-n1c(=O)c(C(=O)Nc2nnnn2C)nc2ccccc21 [Compound 5.034] | 5 (5=80-100%)
Cn1nnnc1NC(=O)c1nc2ccccc2n(-c2cccc(F)c2)c1=O [Compound 5.018] | 5 (5=80-100%)
Cn1nnnc1NC(=O)c1nc2cccnc2n(-c2ccccc2)c1=O [Compound 4.002] | 1 (1=0-19%)
Cn1nnnc1NC(=O)c1nc2ccccc2n(C)c1=O [Compound 5.002] | 4 (4=60-79%)
COc1ccc(-n2c(=O)c(C(=O)Nc3nnnn3C)nc3ccccc32)cc1Cl [Compound 5.039] | 3 (3=40-59%)

Test system: Ipomoea hederacea (IPOHE)
Test: Post-emergence glasshouse herbicide test
Type: in vivo
Conditions: POST Application, 1000 g/h, after 13 days
Method: as §1

Structure (SMILES) | percentage damage caused to the plant, IPOHE
Cn1nnnc1NC(=O)c1nc2ccc(Cl)cc2n(-c2ccccc2)c1=O [Compound 5.008] | 5 (5=80-100%)
Cc1ccccc1-n1c(=O)c(C(=O)Nc2nnnn2C)nc2ccccc21 [Compound 5.034] | 5 (5=80-100%)
Cn1nnnc1NC(=O)c1nc2ccccc2n(-c2cccc(F)c2)c1=O [Compound 5.018] | 5 (5=80-100%)
Cn1nnnc1NC(=O)c1nc2cccnc2n(-c2ccccc2)c1=O [Compound 4.002] | 1 (1=0-19%)
Cn1nnnc1NC(=O)c1nc2ccccc2n(C)c1=O [Compound 5.002] | 5 (5=80-100%)
COc1ccc(-n2c(=O)c(C(=O)Nc3nnnn3C)nc3ccccc32)cc1Cl [Compound 5.039] | 5 (5=80-100%)

Test system: Solanum nigrum (SOLNI)
Test: Post-emergence glasshouse herbicide test
Type: in vivo
Conditions: POST Application, 1000 g/h, after 13 days
Method: as §1

Structure (SMILES) | percentage damage caused to the plant, SOLNI
Cn1nnnc1NC(=O)c1nc2ccc(Cl)cc2n(-c2ccccc2)c1=O [Compound 5.008] | 5 (5=80-100%)
Cc1ccccc1-n1c(=O)c(C(=O)Nc2nnnn2C)nc2ccccc21 [Compound 5.034] | 5 (5=80-100%)
Cn1nnnc1NC(=O)c1nc2ccccc2n(-c2cccc(F)c2)c1=O [Compound 5.018] | 5 (5=80-100%)
Cn1nnnc1NC(=O)c1nc2cccnc2n(-c2ccccc2)c1=O [Compound 4.002] | 3 (3=40-59%)
Cn1nnnc1NC(=O)c1nc2ccccc2n(C)c1=O [Compound 5.002] | 5 (5=80-100%)
COc1ccc(-n2c(=O)c(C(=O)Nc3nnnn3C)nc3ccccc32)cc1Cl [Compound 5.039] | 5 (5=80-100%)

Test system: Setaria faberi (SETFA)
Test: Post-emergence glasshouse herbicide test
Type: in vivo
Conditions: POST Application, 1000 g/h, after 13 days
Method: as §1, with “Compounds ae applied at 1000 g/h.” left out

Structure (SMILES) | percentage damage caused to the plant, SETFA
Cn1nnnc1NC(=O)c1nc2ccc(Cl)cc2n(-c2ccccc2)c1=O [Compound 5.008] | 5 (5=80-100%)
Cc1ccccc1-n1c(=O)c(C(=O)Nc2nnnn2C)nc2ccccc21 [Compound 5.034] | 5 (5=80-100%)
Cn1nnnc1NC(=O)c1nc2ccccc2n(-c2cccc(F)c2)c1=O [Compound 5.018] | 5 (5=80-100%)
Cn1nnnc1NC(=O)c1nc2cccnc2n(-c2ccccc2)c1=O [Compound 4.002] | 1 (1=0-19%)
Cn1nnnc1NC(=O)c1nc2ccccc2n(C)c1=O [Compound 5.002] | 1 (1=0-19%)
COc1ccc(-n2c(=O)c(C(=O)Nc3nnnn3C)nc3ccccc32)cc1Cl [Compound 5.039] | 1 (1=0-19%)

Test system: Alopecurus myosuroides (ALOMY)
Test: Pre-emergence glasshouse herbicide test
Type: in vivo
Conditions: PRE Application, 1000 g/h, after 13 days
Method: as §1

Structure (SMILES) | percentage damage caused to the plant, ALOMY
Cn1nnnc1NC(=O)c1nc2ccc(Cl)cc2n(-c2ccccc2)c1=O [Compound 5.008] | 2 (2=20-39%)
Cc1ccccc1-n1c(=O)c(C(=O)Nc2nnnn2C)nc2ccccc21 [Compound 5.034] | 5 (5=80-100%)
Cn1nnnc1NC(=O)c1nc2ccccc2n(-c2cccc(F)c2)c1=O [Compound 5.018] | 5 (5=80-100%)
Cn1nnnc1NC(=O)c1nc2cccnc2n(-c2ccccc2)c1=O [Compound 4.002] | 1 (1=0-19%)
Cn1nnnc1NC(=O)c1nc2ccccc2n(C)c1=O [Compound 5.002] | 1 (1=0-19%)
COc1ccc(-n2c(=O)c(C(=O)Nc3nnnn3C)nc3ccccc32)cc1Cl [Compound 5.039] | 1 (1=0-19%)

Test system: Amaranthus retoflexus (AMARE)
Test: Pre-emergence glasshouse herbicide test
Type: in vivo
Conditions: PRE Application, 1000 g/h, after 13 days
Method: as §1

Structure (SMILES) | percentage damage caused to the plant, AMARE
Cn1nnnc1NC(=O)c1nc2ccc(Cl)cc2n(-c2ccccc2)c1=O [Compound 5.008] | 5 (5=80-100%)
Cc1ccccc1-n1c(=O)c(C(=O)Nc2nnnn2C)nc2ccccc21 [Compound 5.034] | 5 (5=80-100%)
Cn1nnnc1NC(=O)c1nc2ccccc2n(-c2cccc(F)c2)c1=O [Compound 5.018] | 5 (5=80-100%)
Cn1nnnc1NC(=O)c1nc2cccnc2n(-c2ccccc2)c1=O [Compound 4.002] | 1 (1=0-19%)
Cn1nnnc1NC(=O)c1nc2ccccc2n(C)c1=O [Compound 5.002] | 5 (5=80-100%)
COc1ccc(-n2c(=O)c(C(=O)Nc3nnnn3C)nc3ccccc32)cc1Cl [Compound 5.039] | 5 (5=80-100%)

Test system: Echinochloa crus-galli (ECHCG)
Test: Pre-emergence glasshouse herbicide test
Type: in vivo
Conditions: PRE Application, 1000 g/h, after 13 days
Method: as §1

Structure (SMILES) | percentage damage caused to the plant, ECHCG
Cn1nnnc1NC(=O)c1nc2ccc(Cl)cc2n(-c2ccccc2)c1=O [Compound 5.008] | 2 (2=20-39%)
Cc1ccccc1-n1c(=O)c(C(=O)Nc2nnnn2C)nc2ccccc21 [Compound 5.034] | 5 (5=80-100%)
Cn1nnnc1NC(=O)c1nc2ccccc2n(-c2cccc(F)c2)c1=O [Compound 5.018] | 5 (5=80-100%)
Cn1nnnc1NC(=O)c1nc2cccnc2n(-c2ccccc2)c1=O [Compound 4.002] | 1 (1=0-19%)
Cn1nnnc1NC(=O)c1nc2ccccc2n(C)c1=O [Compound 5.002] | 5 (5=80-100%)
COc1ccc(-n2c(=O)c(C(=O)Nc3nnnn3C)nc3ccccc32)cc1Cl [Compound 5.039] | 3 (3=40-59%)

Test system: Ipomoea hederacea (IPOHE)
Test: Pre-emergence glasshouse herbicide test
Type: in vivo
Conditions: PRE Application, 1000 g/h, after 13 days
Method: as §1

Structure (SMILES) | percentage damage caused to the plant, IPOHE
Cn1nnnc1NC(=O)c1nc2ccc(Cl)cc2n(-c2ccccc2)c1=O [Compound 5.008] | 5 (5=80-100%)
Cc1ccccc1-n1c(=O)c(C(=O)Nc2nnnn2C)nc2ccccc21 [Compound 5.034] | 5 (5=80-100%)
Cn1nnnc1NC(=O)c1nc2ccccc2n(-c2cccc(F)c2)c1=O [Compound 5.018] | 5 (5=80-100%)
Cn1nnnc1NC(=O)c1nc2cccnc2n(-c2ccccc2)c1=O [Compound 4.002] | 1 (1=0-19%)
Cn1nnnc1NC(=O)c1nc2ccccc2n(C)c1=O [Compound 5.002] | 5 (5=80-100%)
COc1ccc(-n2c(=O)c(C(=O)Nc3nnnn3C)nc3ccccc32)cc1Cl [Compound 5.039] | 2 (2=20-39%)

Test system: Setaria faberi (SETFA)
Test: Pre-emergence glasshouse herbicide test
Type: in vivo
Conditions: PRE Application, 1000 g/h, after 13 days
Method: as §1

Structure (SMILES) | percentage damage caused to the plant, SETFA
Cn1nnnc1NC(=O)c1nc2ccc(Cl)cc2n(-c2ccccc2)c1=O [Compound 5.008] | 5 (5=80-100%)
Cc1ccccc1-n1c(=O)c(C(=O)Nc2nnnn2C)nc2ccccc21 [Compound 5.034] | 5 (5=80-100%)
Cn1nnnc1NC(=O)c1nc2ccccc2n(-c2cccc(F)c2)c1=O [Compound 5.018] | 5 (5=80-100%)
Cn1nnnc1NC(=O)c1nc2cccnc2n(-c2ccccc2)c1=O [Compound 4.002] | 1 (1=0-19%)
Cn1nnnc1NC(=O)c1nc2ccccc2n(C)c1=O [Compound 5.002] | 1 (1=0-19%)
COc1ccc(-n2c(=O)c(C(=O)Nc3nnnn3C)nc3ccccc32)cc1Cl [Compound 5.039] | 2 (2=20-39%)

Test system: Solanum nigrum (SOLNI)
Test: Pre-emergence glasshouse herbicide test
Type: in vivo
Conditions: PRE Application, 1000 g/h, after 13 days
Method: as §1

Structure (SMILES) | percentage damage caused to the plant, SOLNI
Cn1nnnc1NC(=O)c1nc2ccc(Cl)cc2n(-c2ccccc2)c1=O [Compound 5.008] | 5 (5=80-100%)
Cc1ccccc1-n1c(=O)c(C(=O)Nc2nnnn2C)nc2ccccc21 [Compound 5.034] | 5 (5=80-100%)
Cn1nnnc1NC(=O)c1nc2ccccc2n(-c2cccc(F)c2)c1=O [Compound 5.018] | 5 (5=80-100%)
Cn1nnnc1NC(=O)c1nc2cccnc2n(-c2ccccc2)c1=O [Compound 4.002] | 1 (1=0-19%)
Cn1nnnc1NC(=O)c1nc2ccccc2n(C)c1=O [Compound 5.002] | 5 (5=80-100%)
COc1ccc(-n2c(=O)c(C(=O)Nc3nnnn3C)nc3ccccc32)cc1Cl [Compound 5.039] | 5 (5=80-100%)
